Data on 16 compounds can be found in US20130158112A1, “COMPOSITIONS AND METHODS FOR INHIBITING BETA AMYLOID SECRETION” (priority 2011, published 2013).

Molecules are shown by their SMILES.

In one data set the test system is H4βAPP695 wt cells. Kind of data set: Cytotoxicity by total cell protein content (BCA) of H4βAPP695 wt cells. Particulars: cytotoxicity.
The test system of another data set is Aβ secretion. Kind of data set: Secreted total Aβ ELISA in conditioned media of H4βAPP695 wt cells. The format is cell-based, human. Particulars: for inhibition at 10 µM / inhibition at 30 µM: Homo sapiens, 24 h, H4βAPP695 wt cells; for inhibition at 10 µM: read-out: Total Aβ (% decrease) 10 μM Mean; for inhibition at 30 µM: read-out: Total Aβ (% decrease) 30 μM Mean; for Aβ secretion inhibiting activity (structure activity summary): in words. How it is done: H4βAPP695 wt cells, a human […] cell line stably transfected with a wtβAPP695 expression vector construct under the control of a CMV promoter (kindly provided by Dr. Chris Eckman from Mayo Clinic, Florida) were cultured as previously described. Twenty-four hours before drug treatment, the media was replaced with serum-free media. Cells were then incubated with drugs (dissolved in DMSO) or vehicle for 24 h for collection of conditioned media and cell lysates. For the PKC inhibitors experiment, three inhibitors were treated 30 min prior to drug challenge. Primary cortical neurons were prepared from embryonic day 18 APP and presenilin 1 (APPswe, PSEN1dE9) transgenic mice on the C57BL/6 genetic background (Jackson Laboratories, strain no. 5864) as previously described. THLE-3 human hepatoma cells (from ATCC) were plated in 24-well plates that were precoated with 10 μg/mL bovine serum albumin, 10 μg/mL fibronectin, and 30 μg/mL bovine type I collagen. The cells were grown in BEGM media (Clonetics) until confluent and treated with drugs at 20 μM for 24 h. This conditioned media was harvested, diluted 1:1 in serum-free medium, and incubated with H4βAPP695 wt cells for 24 h prior to analysis of secreted Aβ, which was compared to the effect of 10 μM drug treatments without prior incubation with the THLE-3 cells. Caco-2 cells (ATCC) were plated in 12-well plates with Transwell inserts (Costar) at 70000 cells per well and grown for 21 days. The media volume of the apical and basal chambers was 0.5 and 1.5 mL, respectively. Transepithelial resistance was measured in each well and found to be >160 Ω/cm^2. Drugs at 40 μM and 20 μg/mL of lucifer yellow were added in serum-free medium to the apical chamber. Four hours later, the basal chamber media was harvested and used to measure lucifer yellow fluorescence to confirm monolayer integrity as well as for treatment of H4βAPP695 wt cells for 24 h prior to analysis of secreted Aβ, which was compared to the effect of direct addition of 10 μM of the corresponding drug.

A word on the melting point: it is the temperature, or range, at which the solid turns liquid. In turn, `O=C(NCCSCc1cccc(NC(=O)C2CC2)c1)c1c(Cl)cccc1Cl` [Compound 69, 2,6-Dichloro-N-(2-[3-(cyclopropanecarbonyl-amino)-benzylsulfanyl]-ethyl)-benzamide] had a melting point of 46 to 47 °C. Also, in the data set with H4βAPP695 wt cells, the “Cell protein (% decrease) 10 μM Mean” value was found to be 3% and the “Cell protein (% decrease) 30 μM Mean” value was 3.2%. For the same compound, in the data set on Aβ secretion, the inhibition at 10 µM was -21.4%, the inhibition at 30 µM is -2% and the “Aβ secretion inhibiting activity (structure activity summary)” value (from here on “Aβ secretion inhibiting activity”) is recorded as “did not yield good activity”.

With `O=C(O)c1cccc(CSCCNC(=O)c2c(Cl)cccc2Cl)c1` [Compound 44, 3-[2-(2,6-Dichloro-benzoylamino)-ethylsulfanylmethyl]-benzoic Acid], the melting point fell in the range of 165 to 166 °C. Besides, in the data set with H4βAPP695 wt cells, the “Cell protein (% decrease) 10 μM Mean” value was 7.1% and the “Cell protein (% decrease) 30 μM Mean” value is 3.2%. Besides, in the data set on Aβ secretion, the inhibition at 10 µM is -11.4%, the inhibition at 30 µM is -3.8% and the “Aβ secretion inhibiting activity” value is “did not yield good activity”.

`N#Cc1cccc(CSCCNC(=O)c2c(Cl)cccc2Cl)c1` [Compound 38, 2,6-Dichloro-N-[2-(3-cyano-benzylsulfanyl)-ethyl]-benzamide] returned a melting point of 123 to 125 °C. In addition, in the data set on H4βAPP695 wt cells, the “Cell protein (% decrease) 10 μM Mean” value is −4.8% and the “Cell protein (% decrease) 30 μM Mean” value turned out to be 4.3%. Further, in the data set on Aβ secretion, the inhibition at 10 µM was 20%, the inhibition at 30 µM came to 38.7% and the “Aβ secretion inhibiting activity” value is “did not yield good activity”.

Regarding `O=C(NCCS(=O)(=O)Cc1cccc(Cl)c1)c1c(Cl)cccc1Cl` [Compound 66, 2,6-Dichloro-N-[2-(3-chloro-phenylmethanesulfonyl)-ethyl]-benzamide], the melting point lay in the range of 156 to 158 °C. In the data set on H4βAPP695 wt cells, the “Cell protein (% decrease) 10 μM Mean” value was −2.2% and the “Cell protein (% decrease) 30 μM Mean” value is given as −3.8%. Further, in the data set on Aβ secretion, the inhibition at 10 µM worked out at 8.9%, the inhibition at 30 µM turned out to be 9.3% and the “Aβ secretion inhibiting activity” value is “No tested substitutions in the linker region were well tolerated”.

With `O=C(NCCSCc1cccc([N+](=O)[O-])c1)c1c(Cl)cccc1Cl` [Compound 40, 2,6-Dichloro-N-[2-(3-nitro-benzylsulfanyl)-ethyl]-benzamide], the melting point was 76 to 78 °C. In addition, in the data set with H4βAPP695 wt cells, the “Cell protein (% decrease) 10 μM Mean” value was determined as 7.5% and the “Cell protein (% decrease) 30 μM Mean” value came to 24.6%. Besides, in the data set on Aβ secretion, the inhibition at 10 µM was over 50%, the inhibition at 30 µM was found to be 72.5% and the “Aβ secretion inhibiting activity” value is recorded as “good activity”.

Compound `COc1ccc(CSCCNC(=O)c2c(Cl)cccc2Cl)cc1` [Compound 26, 2,6-Dichloro-N-[2-(4-methoxy-benzylsulfanyl)-ethyl]-benzamide] gave a melting point of 80 to 81 °C. In the data set with H4βAPP695 wt cells, the “Cell protein (% decrease) 10 μM Mean” value was 6.7% and the “Cell protein (% decrease) 30 μM Mean” value is listed as 12.7%. Moreover, in the data set on Aβ secretion, the inhibition at 10 µM came out at 1.6%, the inhibition at 30 µM was found to be 1.1% and the “Aβ secretion inhibiting activity” value is “loss of activity”.

As to `O=C(NCCSCc1cccc(Cl)c1)c1c(Br)cccc1Br` [Compound 54, 2,6-Dibromo-N-[2-(3-chloro-benzylsulfanyl)-ethyl]-benzamide], the melting point lay within 55 to 57 °C. In addition, in the data set on H4βAPP695 wt cells, the “Cell protein (% decrease) 10 μM Mean” value was 6.7% and the “Cell protein (% decrease) 30 μM Mean” value is on record as 20.8%. In the data set with Aβ secretion, the inhibition at 30 µM is 83.4% and the “Aβ secretion inhibiting activity” value was “maintained activity”.

Regarding `O=C(NC1CC1)c1cccc(CSCCNC(=O)c2c(Cl)cccc2Cl)c1` [Compound 68, 2,6-Dichloro-N-[2-(3-cyclopropylcarbamoyl-benzylsulfanyl)-ethyl]-benzamide], the melting point lay in the range of 42 to 43 °C. In the data set on H4βAPP695 wt cells, the “Cell protein (% decrease) 10 μM Mean” value is 0% and the “Cell protein (% decrease) 30 μM Mean” value is −1%. Also, in the data set on Aβ secretion, the inhibition at 10 µM is 1.9%, the inhibition at 30 µM stood at 11% and the “Aβ secretion inhibiting activity” value was “did not yield good activity”.

For `O=C(NCCSCc1cccc(Cl)c1)c1ccccc1` [Compound 63, N-[2-(3-Chloro-benzylsulfanyl)-ethyl]-benzamide], the melting point lay in the range of 75 to 76 °C. In addition, in the data set with H4βAPP695 wt cells, the “Cell protein (% decrease) 10 μM Mean” value is reported as 2.4% and the “Cell protein (% decrease) 30 μM Mean” value was −4.5%. Also, in the data set on Aβ secretion, the inhibition at 10 µM came to 0.3%, the inhibition at 30 µM is 10.7% and the “Aβ secretion inhibiting activity” value is listed as “not well tolerated”.

With `O=C(NCCSCc1cccc(F)c1)c1c(F)cccc1F` [Compound 46, 2,6-Difluoro-N-[2-(3-fluoro-benzylsulfanyl)-ethyl]-benzamide], the melting point lay in the range of 39 to 41 °C. Besides, in the data set with H4βAPP695 wt cells, the “Cell protein (% decrease) 10 μM Mean” value was determined as 0.1% and the “Cell protein (% decrease) 30 μM Mean” value was 1.8%. Besides, in the data set on Aβ secretion, the inhibition at 10 µM was -16.8% and the inhibition at 30 µM is -15.5%.

Take `O=C(NCCOCc1cccc(Cl)c1)c1c(Cl)cccc1Cl` [Compound 72, 2,6-Dichloro-N-[2-(3-chloro-benzyloxy)-ethyl]-benzamide]: the melting point was in the range of 70 to 72 °C. Further, in the data set with H4βAPP695 wt cells, the “Cell protein (% decrease) 10 μM Mean” value was −9.9% and the “Cell protein (% decrease) 30 μM Mean” value is recorded as 4.2%. Also, in the data set with Aβ secretion, the inhibition at 10 µM was 10.5%, the inhibition at 30 µM is -5.1% and the “Aβ secretion inhibiting activity” value was “No tested substitutions in the linker region were well tolerated”.

In the case of `O=C(NCC[S+]([O-])Cc1cccc(O)c1)c1c(Cl)cccc1Cl` (stereo not shown) [Compound 33, 2,6-Dichloro-N-[2-(3-hydroxy-phenylmethanesulfinyl)-ethyl]-benzamide], the melting point was in the range of 165 to 166 °C. Besides, in the data set on H4βAPP695 wt cells, the “Cell protein (% decrease) 10 μM Mean” value is on record as 2.8% and the “Cell protein (% decrease) 30 μM Mean” value was determined as 4.4%. Also, in the data set with Aβ secretion, the inhibition at 10 µM was -23.7%, the inhibition at 30 µM amounted to 15.9% and the “Aβ secretion inhibiting activity” value is “No tested substitutions in the linker region were well tolerated”.

`O=Cc1cccc(CSCCNC(=O)c2c(Cl)cccc2Cl)c1` [Compound 49, 2,6-Dichloro-N-[2-(3-formyl-benzylsulfanyl)-ethyl]-benzamide]: the melting point was in the range of 63 to 65 °C. In addition, in the data set with H4βAPP695 wt cells, the “Cell protein (% decrease) 10 μM Mean” value came out at 1.5% and the “Cell protein (% decrease) 30 μM Mean” value is −2.1%. Besides, in the data set with Aβ secretion, the inhibition at 10 µM stood at 19.9%, the inhibition at 30 µM was found to be 36.4% and the “Aβ secretion inhibiting activity” value is listed as “did not yield good activity”.

For the compound `Nc1cccc(CSCCNC(=O)c2c(Cl)cccc2Cl)c1` [Compound 41, N-[2-(3-Amino-benzylsulfanyl)-ethyl]-2,6-dichloro-benzamide], the melting point is 55 to 56 °C. Besides, in the data set with H4βAPP695 wt cells, the “Cell protein (% decrease) 10 μM Mean” value is listed as 15.3% and the “Cell protein (% decrease) 30 μM Mean” value is recorded as 13.1%. Moreover, in the data set on Aβ secretion, the inhibition at 10 µM amounted to 0.1%, the inhibition at 30 µM came to 17% and the “Aβ secretion inhibiting activity” value is reported as “did not yield good activity”.

Regarding `O=C(NCCS(=O)(=O)Cc1cccc(O)c1)c1c(Cl)cccc1Cl` [Compound 31, 2,6-Dichloro-N-[2-(3-hydroxy-phenylmethanesulfonyl)-ethyl]-benzamide], the melting point fell in the range of 139 to 141 °C. Also, in the data set with H4βAPP695 wt cells, the “Cell protein (% decrease) 10 μM Mean” value amounted to 7.7% and the “Cell protein (% decrease) 30 μM Mean” value came out at 4.4%. Moreover, in the data set on Aβ secretion, the inhibition at 10 µM is -10.1%, the inhibition at 30 µM worked out at 9.6% and the “Aβ secretion inhibiting activity” value is on record as “No tested substitutions in the linker region were well tolerated”.

For `O=C(NCC[S+]([O-])Cc1cccc(Cl)c1)c1c(Cl)cccc1Cl` (stereo not shown) [Compound 71, 2,6-Dichloro-N-[2-(3-chloro-phenylmethanesulfinyl)-ethyl]-benzamide], the melting point lay within 174 to 176 °C. In the data set with H4βAPP695 wt cells, the “Cell protein (% decrease) 10 μM Mean” value is −4.9% and the “Cell protein (% decrease) 30 μM Mean” value is recorded as 7.3%. Also, in the data set on Aβ secretion, the inhibition at 10 µM stood at 4%, the inhibition at 30 µM is -16.5% and the “Aβ secretion inhibiting activity” value is on record as “No tested substitutions in the linker region were well tolerated”.
